The assay in a line: Inhibition of Influenza B virus neuraminidase R152K mutant.

One may read the IC50 as the concentration that gives 50% inhibition. As for `CCOC(=O)c1cn(CC)c2ccc(-n3cc(C4=CCCCC4)nn3)cc2c1=O`, the IC50 worked out at 30 µM. As for `CCOC(=O)C1=C[C@@H](OC(CC)CC)[C@H](NC(C)=O)[C@@H](N)C1` [OSELTAMIVIR], the figure is 85 µM.

The record behind these values is ChEMBL document CHEMBL3739372 (Bioorg Med Chem, 2015).
